Structures are written as SMILES.

The assay relates to MV-4-11 cells. The assay is described as follows: Cell Viability Assay in MV-4-11 Cells. It is filed as cell-based. Conditions: Homo sapiens, MV4-11, 72 h, MV-4-11 cells, 72 h, Cell-Titer Glo; read-out: IC50. The method in brief:
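Luminescent ATP read-out (CellTiter-Glo) after 72 h compound treatment of MV-4-11 leukaemia cells (7,000 per well, IMDM plus 10% FBS). Values expressed relative to DMSO control and derived by four-parameter non-linear regression.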
For orientation: IC50 means the concentration that inhibits the measured activity by half. Regarding `O=C(c1ccc(-n2nnc3cccnc32)cc1F)N(c1nccc2sc(-c3cnccn3)cc12)[C@@H]1CCCNC1` [Example 451, 2-fluoro-N-[(3R)-3-piperidyl]-N-(2-pyrazin-2-ylthieno[3,2-c]pyridin-4-yl)-4-(triazolo[4,5-b]pyridin-3-yl)benzamide], the IC50 stood at 0.25 µM.

Take `NC(=O)c1cccc(-c2cc3c(N(C(=O)c4ccc(-n5nnc6cccnc65)cc4F)[C@@H]4CCCNC4)nccc3s2)c1` [Example 452, N-[2-(3-carbamoylphenyl)thieno[3,2-c]pyridin-4-yl]-2-fluoro-N-[(3R)-3-piperidyl]-4-(triazolo[4,5-b]pyridin-3-yl)benzamide]: the IC50 came to 0.18 µM. Under `NC(=O)c1ccc2c(N(C(=O)c3ccc(-n4nnc5cccnc54)cc3F)[C@@H]3CCCNC3)nccc2c1` [Example 453, (R)-1-(4-(3H-[1,2,3]triazolo[4,5-b]pyridin-3-yl)-2-fluoro-N-(piperidin-3-yl)benzamido)isoquinoline-6-carboxamide] stands 0.2 µM; under `O=C(c1ccc(-n2nnc3cccnc32)cc1F)N(c1nccc2sc(-c3ccc(C(F)(F)F)nc3)cc12)[C@@H]1CCCNC1` [Example 454, 2-fluoro-N-[(3R)-3-piperidyl]-4-(triazolo[4,5-b]pyridin-3-yl)-N-[2-[6-(trifluoromethyl)-3-pyridyl]thieno[3,2-c]pyridin-4-yl]benzamide], 1 µM. Then `O=C(c1ccc(-n2nnc3cccnc32)cc1F)N(c1nccc2sc(-c3ccnnc3)cc12)[C@@H]1CCCNC1` [Example 455, 2-fluoro-N-[(3R)-3-piperidyl]-N-(2-pyridazin-4-ylthieno[3,2-c]pyridin-4-yl)-4-(triazolo[4,5-b]pyridin-3-yl)benzamide], with 0.65 µM; and `O=C(c1ccc(-n2nnc3cccnc32)cc1F)N(c1nccc2sc(-c3ccncn3)cc12)[C@@H]1CCCNC1` [Example 456, 2-fluoro-N-[(3R)-3-piperidyl]-N-(2-pyrimidin-4-ylthieno[3,2-c]pyridin-4-yl)-4-(triazolo[4,5-b]pyridin-3-yl)benzamide], with 0.38 µM. Then `Nc1nccc(-c2cc3c(N(C(=O)c4ccc(-n5nnc6cccnc65)cc4F)[C@@H]4CCCNC4)nccc3s2)n1` [Example 457, N-[2-(2-aminopyrimidin-4-yl)thieno[3,2-c]pyridin-4-yl]-2-fluoro-N-[(3R)-3-piperidyl]-4-(triazolo[4,5-b]pyridin-3-yl)benzamide], with 0.29 µM. Regarding `CN(C)c1nccc(-c2cc3c(N(C(=O)c4ccc(-n5nnc6cccnc65)cc4F)[C@@H]4CCCNC4)nccc3s2)n1` [Example 458, N-[2-[2-(dimethylamino)pyrimidin-4-yl]thieno[3,2-c]pyridin-4-yl]-2-fluoro-N-[(3R)-3-piperidyl]-4-(triazolo[4,5-b]pyridin-3-yl)benzamide], the IC50 is 0.39 µM.

On to `O=C(c1ccc(-n2nnc3cccnc32)cc1F)N(c1nccc2sc(-c3cc[nH]c(=O)c3)cc12)[C@@H]1CCCNC1` [Example 459, 2-fluoro-N-[2-(2-oxo-1H-pyridin-4-yl)thieno[3,2-c]pyridin-4-yl]-N-[(3R)-3-piperidyl]-4-(triazolo[4,5-b]pyridin-3-yl)benzamide], for which the IC50 is 0.43 µM. Under `COc1cc(-c2cc3c(N(C(=O)c4ccc(-n5nnc6cccnc65)cc4F)[C@@H]4CCCNC4)nccc3s2)ccn1` [Example 460, 2-fluoro-N-[2-(2-methoxy-4-pyridyl)thieno[3,2-c]pyridin-4-yl]-N-[(3R)-3-piperidyl]-4-(triazolo[4,5-b]pyridin-3-yl)benzamide] stands 0.22 µM. Under `CCc1cc(-c2cc3c(N(C(=O)c4ccc(-n5nnc6cccnc65)cc4F)[C@@H]4CCCNC4)nccc3s2)ccn1` [Example 461, N-[2-(2-ethyl-4-pyridyl)thieno[3,2-c]pyridin-4-yl]-2-fluoro-N-[(3R)-3-piperidyl]-4-(triazolo[4,5-b]pyridin-3-yl)benzamide] stands 0.72 µM; under `O=C(c1ccc(-n2nnc3cccnc32)cc1F)N(c1nccc2sc(-c3ccnc(C(F)(F)F)c3)cc12)[C@@H]1CCCNC1` [Example 462, 2-fluoro-N-[(3R)-3-piperidyl]-4-(triazolo[4,5-b]pyridin-3-yl)-N-[2-[2-(trifluoromethyl)-4-pyridyl]thieno[3,2-c]pyridin-4-yl]benzamide], 1 µM.

`CC(C)(C#N)c1cc(-c2cc3c(N(C(=O)c4ccc(-n5nnc6cccnc65)cc4F)[C@@H]4CCCNC4)nccc3s2)ccn1` [Example 463]: the 50% inhibitory concentration (IC50) is 0.32 µM. Then `O=C(c1ccc(-n2nnc3cccnc32)cc1F)N(c1nccc2sc(-c3ccccc3)cc12)[C@@H]1CCCNC1` [Example 464, 2-fluoro-N-(2-phenylthieno[3,2-c]pyridin-4-yl)-N-[(3R)-3-piperidyl]-4-(triazolo[4,5-b]pyridin-3-yl)benzamide], with 0.64 µM; and `O=C(c1ccc(-n2nnc3cccnc32)cc1F)N(c1nccc2sc(Cc3cccnc3)cc12)[C@@H]1CCCNC1` [Example 465, 2-fluoro-N-[(3R)-3-piperidyl]-N-[2-(3-pyridylmethyl)thieno[3,2-c]pyridin-4-yl]-4-(triazolo[4,5-b]pyridin-3-yl)benzamide], with 0.24 µM; and `O=C(c1ccc(-n2nnc3cccnc32)cc1F)N(c1nccc2sc(Cc3ccccc3)cc12)[C@@H]1CCCNC1` [Example 466, N-(2-benzylthieno[3,2-c]pyridin-4-yl)-2-fluoro-N-[(3R)-3-piperidyl]-4-(triazolo[4,5-b]pyridin-3-yl)benzamide], with 0.44 µM. As for `O=Cc1cccc(-c2cc3c(N(C(=O)c4ccc(-n5nnc6cccnc65)cc4F)[C@@H]4CCCNC4)nccc3s2)c1` [Example 467, 2-fluoro-N-[2-(3-formylphenyl)thieno[3,2-c]pyridin-4-yl]-N-[(3R)-3-piperidyl]-4-(triazolo[4,5-b]pyridin-3-yl)benzamide], the IC50 is 0.22 µM. Then `Cc1csc2ccnc(N(C(=O)c3ccc(Nc4ncccn4)cc3F)[C@@H]3CCCNC3)c12` [Example 468, (R)-2-fluoro-N-(3-methylthieno[3,2-c]pyridin-4-yl)-N-(piperidin-3-yl)-4-(pyrimidin-2-ylamino)benzamide], with 0.12 µM; and `Cn1cc(-c2ccc(C(=O)N(c3nccc4cc(F)ccc34)[C@@H]3CCCNC3)c(F)c2)nn1` [Example 469, (R)-2-fluoro-N-(6-fluoroisoquinolin-1-yl)-4-(1-methyl-1H-1,2,3-triazol-4-yl)-N-(piperidin-3-yl)benzamide], with 0.18 µM; and `Cn1cc(-c2ccc(C(=O)N(c3nccc4cc(Cl)ccc34)[C@@H]3CCCNC3)c(F)c2)nn1` [Example 470, N-(6-chloro-1-isoquinolyl)-2-fluoro-4-(1-methyltriazol-4-yl)-N-[(3R)-3-piperidyl]benzamide], with 0.091 µM. Regarding `COc1ccc2c(N(C(=O)c3ccc(-c4cn(C)nn4)cc3F)[C@@H]3CCCNC3)nccc2c1` [Example 471, (R)-2-fluoro-N-(6-methoxyisoquinolin-1-yl)-4-(1-methyl-1H-1,2,3-triazol-4-yl)-N-(piperidin-3-yl)benzamide], the IC50 was 0.24 µM. Under `Cn1cc(-c2ccc(C(=O)N(c3nccc4cc(C#N)ccc34)[C@@H]3CCCNC3)c(F)c2)nn1` [Example 472, (R)—N-(6-cyanoisoquinolin-1-yl)-2-fluoro-4-(1-methyl-1H-1,2,3-triazol-4-yl)-N-(piperidin-3-yl)benzamide] stands 0.58 µM; under `Cc1cccc2ccnc(N(C(=O)c3ccc(Nc4ncncn4)cc3F)[C@@H]3CCCNC3)c12` [Example 473, (R)-4-((1,3,5-triazin-2-yl)amino)-2-fluoro-N-(8-methylisoquinolin-1-yl)-N-(piperidin-3-yl)benzamide], 0.3 µM; under `Cc1cc(F)cc2ccnc(N(C(=O)c3ccc(-c4cn(C)nn4)cc3F)[C@@H]3CCCNC3)c12` [Example 474, (R)-2-fluoro-N-(6-fluoro-8-methylisoquinolin-1-yl)-4-(1-methyl-1H-1,2,3-triazol-4-yl)-N-(piperidin-3-yl)benzamide], 0.0099 µM.

Take `Cn1cc(-c2ccc(C(=O)N(c3nccc4sc(Br)cc34)[C@@H]3CCCNC3)cc2O)cn1` [Example 475, N-(2-bromothieno[3,2-c]pyridin-4-yl)-3-hydroxy-4-(1-methylpyrazol-4-yl)-N-[(3R)-3-piperidyl] benzamide]: the IC50 is 4.6 µM.

Regarding `Cn1cc(-c2ccc(C(=O)N(c3nccc4sc(C#CCCCO)cc34)[C@@H]3CCCNC3)cc2O)cn1` [Example 476, 3-hydroxy-N-[2-(5-hydroxypent-1-ynyl)thieno[3,2-c]pyridin-4-yl]-4-(1-methylpyrazol-4-yl)-N-[(3R)-3-piperidyl] benzamide], the IC50 was determined as 0.22 µM.

Regarding `Cn1cc(-c2ccc(C(=O)N(c3nccc4sc(C#N)cc34)[C@@H]3CCCNC3)c(F)c2)nn1` [Example 477, N-(2-cyanothieno [3,2-c]pyridin-4-yl)-2-fluoro-4-(1-methyltriazol-4-yl)-N-[(3R)-3-piperidyl] benzamide], the IC50 turned out to be 2.8 µM. Under `Cn1cc(-c2ccc(C(=O)N(c3nccc4sc(-c5ccnc(N)c5)cc34)[C@@H]3CCCNC3)c(F)c2)nn1` [Example 478, (R)—N-(2-(2-aminopyridin-4-yl)thieno[3,2-c]pyridin-4-yl)-2-fluoro-4-(1-methyl-1H-1,2,3-triazol-4-yl)-N-(piperidin-3-yl)benzamide] stands 0.34 µM; under `Cn1cc(-c2ccc(C(=O)N(c3nccc4sc(C#CCO)cc34)[C@@H]3CCCNC3)c(F)c2)nn1` [Example 479, (R)-2-fluoro-N-(2-(3-hydroxyprop-1-yn-1-yl)thieno[3,2-c]pyridin-4-yl)-4-(1-methyl-1H-1,2,3-triazol-4-yl)-N-(piperidin-3-yl)benzamide], 3.2 µM. As to `Cn1cc(-c2ccc(C(=O)N(c3nccc4sc(-c5cccc(C(N)=O)c5)cc34)[C@@H]3CCCNC3)c(F)c2)nn1` [Example 480, N-[2-(3-carbamoylphenyl)thieno [3,2-c]pyridin-4-yl]-2-fluoro-4-(1-methyltriazol-4-yl)-N-[(3R)-3-piperidyl] benzamide], the IC50 was determined as 0.54 µM.

For the origin of these results see patent US20240400555A1 (Initial Therapeutics, Inc., priority 2023, published 2024).
